# Laboratory results published in ChEMBL document CHEMBL4049385 (Bioorg Med Chem Lett, 2017).
# Activity calls are given as the source filed them. The calls are words filed in the database; no cut-off is given here.
# Legend:
# [1] = target: T1, Oxysterols receptor LXR-alpha (Homo sapiens, UniProt Q13133); assay: Partial agonist activity at recombinant human GAL4-DBD-fused LXRalpha-LBD expressed in HEK293T cells measured after 12 to 14 hrs by dual-glo luciferase reporter gene assay; format: cell-based, HEK-293T
# T1 sequence (Q13133 whole entry): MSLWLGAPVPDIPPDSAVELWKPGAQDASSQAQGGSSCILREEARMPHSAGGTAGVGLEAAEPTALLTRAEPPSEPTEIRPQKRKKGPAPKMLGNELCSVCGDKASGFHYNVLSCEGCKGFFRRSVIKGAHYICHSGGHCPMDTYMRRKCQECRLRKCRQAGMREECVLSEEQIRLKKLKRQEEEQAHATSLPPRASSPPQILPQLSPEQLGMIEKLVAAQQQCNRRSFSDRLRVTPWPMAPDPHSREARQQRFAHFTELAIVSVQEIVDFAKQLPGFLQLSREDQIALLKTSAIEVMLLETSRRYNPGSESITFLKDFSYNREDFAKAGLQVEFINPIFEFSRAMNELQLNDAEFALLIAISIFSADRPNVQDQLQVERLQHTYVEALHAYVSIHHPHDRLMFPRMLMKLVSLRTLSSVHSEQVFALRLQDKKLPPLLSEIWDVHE
# [2] = target: T2, Oxysterols receptor LXR-beta (Homo sapiens, UniProt P55055); assay: Partial agonist activity at recombinant human GAL4-DBD-fused LXRbeta-LBD expressed in HEK293T cells measured after 12 to 14 hrs by dual-glo luciferase reporter gene assay; format: cell-based, HEK-293T
# T2 sequence (P55055 whole entry): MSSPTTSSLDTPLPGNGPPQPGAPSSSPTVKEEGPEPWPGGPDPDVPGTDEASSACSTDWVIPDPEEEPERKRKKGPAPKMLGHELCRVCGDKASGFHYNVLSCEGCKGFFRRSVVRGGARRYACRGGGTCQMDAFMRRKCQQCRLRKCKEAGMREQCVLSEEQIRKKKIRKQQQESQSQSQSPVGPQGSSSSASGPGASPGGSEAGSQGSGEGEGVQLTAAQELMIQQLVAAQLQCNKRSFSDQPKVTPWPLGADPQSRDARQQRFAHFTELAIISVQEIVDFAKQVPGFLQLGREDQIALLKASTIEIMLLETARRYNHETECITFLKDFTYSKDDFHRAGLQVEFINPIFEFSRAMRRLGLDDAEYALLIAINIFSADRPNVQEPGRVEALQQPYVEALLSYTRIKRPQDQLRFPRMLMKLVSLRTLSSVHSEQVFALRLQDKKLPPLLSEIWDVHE
# [3] = target: T3, Oxysterols receptor LXR-alpha (Homo sapiens) (UniProt Q13133); assay: Partial agonist activity at recombinant human GAL4-DBD-fused LXRalpha-LBD expressed in HEK293T cells at 10 uM measured after 12 to 14 hrs by dual-glo luciferase reporter gene assay relative to T0901317; format: cell-based; settings: HEK-293T
# T3 sequence (whole entry): T1 sequence (Q13133 whole entry)
# [4] = target: T3, Oxysterols receptor LXR-alpha (Homo sapiens); assay: Agonist activity at recombinant human GAL4-DBD-fused LXRalpha-LBD expressed in HEK293T cells at 1 uM in presence of LXR-agonist 22(R)-hydroxycholesterol measured after 12 to 14 hrs by dual-glo luciferase reporter gene assay; format: cell-based; settings: HEK-293T
# [5] = Cmax in patient with solid tumor at 300 mg/m2, po administered once daily; format: ADME, organism-based; set-up: route oral; settings: human, in vivo
# [6] = target: T4, Oxysterols receptor LXR-beta (Homo sapiens) (UniProt P55055); assay: Partial agonist activity at recombinant human GAL4-DBD-fused LXRbeta-LBD expressed in HEK293T cells at 10 uM measured after 12 to 14 hrs by dual-glo luciferase reporter gene assay relative to T0901317; format: cell-based; settings: HEK-293T
# T4 sequence (whole entry): T2 sequence (P55055 whole entry)
# HEK-293T [7] = assay: Effect on recombinant firefly luciferase activity expressed in HEK293T cells at 1 uM after 12 to 14 hrs by luminescence assay; format: ADME, cell-based; settings: human
# [8] = target: T3, Oxysterols receptor LXR-alpha (Homo sapiens); assay: Partial antagonist activity at recombinant human GAL4-DBD-fused LXRalpha-LBD expressed in HEK293T cells assessed as inhibition of GW3965-induced receptor activation at 1 uM measured after 12 to 14 hrs by dual-glo luciferase reporter gene assay; format: cell-based; settings: HEK-293T
# [9] = target: T3, Oxysterols receptor LXR-alpha (Homo sapiens); assay: Partial antagonist activity at recombinant human GAL4-DBD-fused LXRalpha-LBD expressed in HEK293T cells assessed as inhibition of WAY252623-induced receptor activation at 1 uM measured after 12 to 14 hrs by dual-glo luciferase reporter gene assay; format: cell-based; settings: HEK-293T
# HEK-293T [10] = assay: Effect on recombinant firefly luciferase activity expressed in HEK293T cells at 10 uM after 12 to 14 hrs by luminescence assay; format: ADME, cell-based; settings: human
# [11] = target: T3, Oxysterols receptor LXR-alpha (Homo sapiens); assay: Partial antagonist activity at recombinant human GAL4-DBD-fused LXRalpha-LBD expressed in HEK293T cells assessed as inhibition of GW3965-induced receptor activation at 10 uM after 12 to 14 hrs by dual-glo luciferase reporter gene assay; format: cell-based; settings: HEK-293T
# [12] = target: T3, Oxysterols receptor LXR-alpha (Homo sapiens); assay: Partial antagonist activity at recombinant human GAL4-DBD-fused LXRalpha-LBD expressed in HEK293T cells assessed as inhibition of WAY252623-induced receptor activation at 10 uM after 12 to 14 hrs by dual-glo luciferase reporter gene assay; format: cell-based; settings: HEK-293T
# [13] = target: T3, Oxysterols receptor LXR-alpha (Homo sapiens); assay: Agonist activity at recombinant human GAL4-DBD-fused LXRalpha-LBD expressed in HEK293T cells at 10 uM in presence of LXR-agonist 22(R)-hydroxycholesterol measured after 12 to 14 hrs by dual-glo luciferase reporter gene assay; format: cell-based; settings: HEK-293T
# [14] = Cmax in chronic hand eczema patient at 30 mg, po administered once daily for 24 weeks; format: ADME, organism-based; set-up: dose 30 mg, route oral; settings: human, in vivo
# Homo sapiens [15] = assay: Toxicity in chronic hand eczema patient assessed as increase in serum cholesterol level at 30 mg, po administered once daily for 24 weeks relative to control; format: organism-based; settings: in vivo, 4032 h
# Homo sapiens [16] = assay: Toxicity in chronic hand eczema patient assessed as increase in triglyceride level at 30 mg, po administered once daily for 24 weeks relative to control; format: organism-based; settings: in vivo, 4032 h
# [17] = target: T3, Oxysterols receptor LXR-alpha (Homo sapiens); assay: Agonist activity at recombinant human GAL4-DBD-fused LXRalpha-LBD expressed in HEK293T cells at 10 uM in presence of RXR-antagonist HX531 measured after 12 to 14 hrs by dual-glo luciferase reporter gene assay; format: cell-based; settings: HEK-293T
# [18] = target: T3, Oxysterols receptor LXR-alpha (Homo sapiens); assay: Agonist activity at recombinant human GAL4-DBD-fused LXRalpha-LBD expressed in HEK293T cells at 10 to 20 uM in presence of RXR-antagonist HX531 measured after 12 to 14 hrs by dual-glo luciferase reporter gene assay; format: cell-based; settings: HEK-293T
compound,measurement,setting,value
Fc1ccc(-c2c3cccc(C(F)(F)F)c3nn2Cc2ccc(F)cc2Cl)cc1 [LXR-623],EC50,[1],1.44 µM
same,EC50,[2],0.9 µM
C=C(c1ccc(C(=O)O)cc1)c1cc2c(cc1C)C(C)(C)CCC2(C)C [BEXAROTENE],fold change (FC),[3],1.82
same,EC50,[1],0.196 µM
same,EC50,[2],0.434 µM
same,Activity,[4],Active
same,Cmax,[5],3390 nM
same,fold change (FC),[6],2.23
same,Activity,HEK-293T [7],Non-Toxic
same,inhibition,[8],Active
same,inhibition,[9],Active
CC1=C(/C=C/C(C)=C\C=C\C(C)=C\C(=O)O)C(C)(C)CCC1 [ALITRETINOIN],fold change (FC),[3],1.39
same,Activity,HEK-293T [10],Non-Toxic
same,EC50,[2],1.73 µM
same,inhibition,[11],Active
same,inhibition,[12],Active
same,Activity,[13],Active
same,Cmax,[14],810 nM
same,Activity,Homo sapiens [15],14%
same,Activity,Homo sapiens [16],8%
same,fold change (FC),[6],1.68
same,Activity,[17],Active
CC(C)CC[C@@H](O)[C@@H](C)[C@H]1CC[C@H]2[C@@H]3CC=C4C[C@@H](O)CC[C@]4(C)[C@H]3CC[C@]12C,Activity,[18],Active
